Results: patent US20260271931A1, “HERBICIDAL MIXTURES” (Bayer Aktiengesellschaft, priority 2023, published 2026)
Read-outs that look alike come from different tables or passages of the source.

Legend:
Type in all cases: in vivo
[1] = system: Eleusine indica (ELEIN); test: Post-emergence action against weeds, greenhouse pot test, visual rating: Eleusine indica; conditions: Eleusine indica, post-emergence; for pest or weed control at 3 g/ha: 3 g a.i./ha; for pest or weed control at 0.4 g/ha: 0.4 g a.i./ha
Protocol: (§1) When the observed efficacies already exceed the formal sum total of the values of the tests with individual applications, they also exceed the expected value according to Colby, which is calculated using the formula below and is likewise regarded as an indication of synergism (cf. S. R. Colby; in Weeds 15 (1967) pp. 20 to 22):
(§2) where: • A=efficacy of the active ingredient (A) in % at an application rate of a [g a.i./ha]; • B=efficacy of the active ingredient (B) in % at an application rate of b [g a.i./ha]; • E^C=expected value of the effect of the combination (A)+(B) in % at the combined application rate a+b [g a.i./ha].
(§3) The observed values (E^A) from the experiments, given suitable low dosages, show an effect of the combinations exceeding the expected values according to Colby (E^C) (Δ).
(§4) Seeds of mono- and dicotyledonous weeds were placed in sandy loam in pots, covered with soil and grown in a greenhouse under good growth conditions (temperature, air humidity, water supply). Two to three weeks after sowing, the test plants were treated at the two- to four-leaf stage with the compositions of the invention. The compositions of the invention, formulated as spray powders or as emulsion concentrates, were sprayed onto the green parts of the plant in various dosages with an application rate equivalent to […] of water. After the test plants had been kept in the greenhouse under optimum growth conditions for 3 weeks, the activity of the preparations was rated visually in comparison to untreated controls.
(§5) 100% efficacy means complete control of the particular weed tested.
(§6) 0% efficacy means zero control of the particular weed tested.
(§7) Expected values according to Colby are reported under E.
(§8) The exceedance of the expected value E is given as Δ (=synergistic effect).
(§9) The rating period is reported in days after application (DAT).

[2] = system: Kochia scoparia (KCHSC); test: Post-emergence action against weeds, greenhouse pot test, visual rating: Kochia scoparia
[3] = system: Centaurea cyanus (CENCY); test: Post-emergence action against weeds, greenhouse pot test, visual rating: Centaurea cyanus
Protocol: as §1, §2, §3, §4, §5, §6, §7, §8, §9

[4] = system: Lolium rigidum (LOLRI); test: Post-emergence action against weeds, greenhouse pot test, visual rating: Lolium rigidum
[5] = system: Brachiaria platyfylla (BRAPP); test: Post-emergence action against weeds, greenhouse pot test, visual rating: Brachiaria platyfylla; conditions: post-emergence; for pest or weed control at 3 g/ha: 3 g a.i./ha; for pest or weed control at 0.4 g/ha: 0.4 g a.i./ha
Protocol: as §1, §2, §3, §4, §5, §6, §7, §8, §9

[6] = system: Bidens pilosa (BIDPI); test: Post-emergence action against weeds, greenhouse pot test, visual rating: Bidens pilosa
[7] = system: Centaurea cyanus (CENCY); test: Post-emergence action against weeds, greenhouse pot test, visual rating: Centaurea cyanus; conditions: 240 h, read-out: Herbicidal effect [%] on CENCY 10 DAT
[8] = system: Sorghum halepense (SORHA); test: Post-emergence action against weeds, greenhouse pot test, visual rating: Sorghum halepense
Protocol: as §1, §2, §3, §4, §5, §6, §7, §8, §9

[9] = system: Pharbitis purpurea (PHBPU); test: Post-emergence action against weeds, greenhouse pot test, visual rating: Pharbitis purpurea
Protocol: as §1, §2, §3, §4, §5, §6, §7, §8, §9

[10] = system: Avena fatua (AVEFA); test: Post-emergence action against weeds, greenhouse pot test, visual rating: Avena fatua
[11] = system: Echinochloa crus-galli (ECHCG); test: Post-emergence action against weeds, greenhouse pot test, visual rating: Echinochloa crus-galli; conditions: 1 g a.i./ha
[12] = 504 h, read-out: Herbicidal effect [%] on ELEIN 21 DAT
[13] = 240 h, read-out: Herbicidal effect [%] on ELEIN 10 DAT
[14] = 240 h, read-out: Herbicidal effect [%] on BRAPP 10 DAT
[15] = 504 h, read-out: Herbicidal effect [%] on BRAPP 21 DAT

SMILES: CS(=O)(=O)NC(=O)c1cc(Oc2ccc(C(F)(F)F)cc2Cl)ccc1[N+](=O)[O-] [Fomesafen, fomesafen]
- pest or weed control at […] ([1]; 504 h, 1.5 g a.i./ha, read-out: Herbicidal effect [%] on ELEIN 21 DAT): 0%
- Herbicidal effect [%] on KCHSC 10 DAT ([2]; 1.5 g a.i./ha): 10%
- pest or weed control at […] ([2]; Bassia scoparia, post-emergence, 504 h, 1.5 g a.i./ha, read-out: Herbicidal effect [%] on KCHSC 21 DAT): 0%
- Herbicidal effect [%] on CENCY 21 DAT ([3]; 1.5 g a.i./ha): 30%
- pest or weed control at […] ([4]; Lolium rigidum, 504 h, 1.5 g a.i./ha, 21 DAT, read-out: Herbicidal effect [%] on LOLRI 21 DAT): 0%
- pest or weed control at […] ([5]; 504 h, 1.5 g a.i./ha, read-out: Herbicidal effect [%] on BRAPP 21 DAT): 0%
- Herbicidal effect [%] on BIDPI 10 DAT ([6]; 1.5 g a.i./ha): 30%
- Herbicidal effect [%] on BIDPI 21 DAT ([6]; 1.5 g a.i./ha): 20%
- pest or weed control at […] ([7]; 1.5 g a.i./ha): 20%

SMILES: CCOC(=O)COc1cc(-c2nn(C)c(OC(F)F)c2Cl)c(F)cc1Cl [Pyraflufen-ethyl, pyraflufen-ethyl]
- pest or weed control at […] [1, 12]: 0%
- Herbicidal effect [%] on SORHA 21 DAT ([8]; 7.5 g a.i./ha): 10%
- Herbicidal effect [%] on CENCY 21 DAT ([3]; 7.5 g a.i./ha): 88%
- Herbicidal effect [%] on BIDPI 10 DAT ([6]; 7.5 g a.i./ha): 88%
- Herbicidal effect [%] on BIDPI 21 DAT ([6]; 7.5 g a.i./ha): 80%
- pest or weed control at […] [7]: 88%

SMILES: CCC(CC)Nc1c([N+](=O)[O-])cc(C)c(C)c1[N+](=O)[O-] [Pendimethalin, pendimethalin]
- pest or weed control at 100 g/ha ([1]; 504 h, 100 g a.i./ha, read-out: Herbicidal effect [%] on ELEIN 21 DAT): 0%
- pest or weed control at 100 g/ha ([2]; Bassia scoparia, post-emergence, 504 h, 100 g a.i./ha, read-out: Herbicidal effect [%] on KCHSC 21 DAT): 10%
- pest or weed control at 100 g/ha ([7]; 100 g a.i./ha): 0%

SMILES: CS(=O)(=O)c1ccc(C(=O)C2C(=O)CCCC2=O)c(Cl)c1COCC(F)(F)F [Tembotrione, tembotrione]
- pest or weed control at 3 g/ha [1, 13]: 60%
- pest or weed control at 3 g/ha [1, 12]: 40%
- Herbicidal effect [%] on SORHA 10 DAT ([8]; 3 g a.i./ha, 10 DAT): 80%
- Herbicidal effect [%] on SORHA 21 DAT ([8]; 3 g a.i./ha): 20%
- Herbicidal effect [%] on KCHSC 10 DAT ([2]; 3 g a.i./ha): 20%
- pest or weed control at 3 g/ha ([2]; Bassia scoparia, post-emergence, 504 h, 3 g a.i./ha, read-out: Herbicidal effect [%] on KCHSC 21 DAT): 10%
- Herbicidal effect [%] on CENCY 21 DAT ([3]; 3 g a.i./ha): 30%
- pest or weed control at 3 g/ha ([4]; Lolium rigidum, 504 h, 3 g a.i./ha, 21 DAT, read-out: Herbicidal effect [%] on LOLRI 21 DAT): 20%
- pest or weed control at 3 g/ha [5, 14]: 40%
- pest or weed control at 3 g/ha [5, 15]: 20%
- Herbicidal effect [%] on PHBPU 21 DAT ([9]; 3 g a.i./ha): 30%
- Herbicidal effect [%] on BIDPI 21 DAT ([6]; 3 g a.i./ha): 30%
- pest or weed control at 3 g/ha ([7]; 3 g a.i./ha): 40%

SMILES: CSc1nnc(C(C)(C)C)c(=O)n1N [Metribuzin, metribuzin]
- pest or weed control at 15 g/ha ([1]; 504 h, 15 g a.i./ha, read-out: Herbicidal effect [%] on ELEIN 21 DAT): 10%
- pest or weed control at 15 g/ha ([4]; Lolium rigidum, 504 h, 15 g a.i./ha, 21 DAT, read-out: Herbicidal effect [%] on LOLRI 21 DAT): 0%
- Herbicidal effect [%] on PHBPU 10 DAT ([9]; 15 g a.i./ha): 0%
- pest or weed control at 15 g/ha ([7]; 15 g a.i./ha): 0%

SMILES: CC(C)N(C)S(=O)(=O)NC(=O)c1cc(-n2c(=O)cc(C(F)(F)F)n(C)c2=O)c(F)cc1Cl [Saflufenacil, saflufenacil]
- pest or weed control at 0.4 g/ha [1, 13]: 30%
- pest or weed control at 0.4 g/ha [1, 12]: 0%
- Herbicidal effect [%] on KCHSC 10 DAT ([2]; 0.4 g a.i./ha): 10%
- pest or weed control at 0.4 g/ha ([2]; Bassia scoparia, post-emergence, 504 h, 0.4 g a.i./ha, read-out: Herbicidal effect [%] on KCHSC 21 DAT): 10%
- Herbicidal effect [%] on CENCY 21 DAT ([3]; 0.4 g a.i./ha): 30%
- Herbicidal effect [%] on LOLRI 10 DAT ([4]; 0.4 g a.i./ha, 10 DAT): 10%
- pest or weed control at 0.4 g/ha ([4]; Lolium rigidum, 504 h, 0.4 g a.i./ha, 21 DAT, read-out: Herbicidal effect [%] on LOLRI 21 DAT): 0%
- pest or weed control at 0.4 g/ha [5, 14]: 10%
- pest or weed control at 0.4 g/ha [5, 15]: 0%
- pest or weed control at 0.4 g/ha ([10]; Avena fatua, 240 h, 10 DAT, 0.4 g a.i./ha, read-out: Herbicidal effect [%] on AVEFA 10 DAT): 10%
- Herbicidal effect [%] on PHBPU 21 DAT ([9]; 0.4 g a.i./ha): 80%
- pest or weed control at 0.4 g/ha ([7]; 0.4 g a.i./ha): 40%

SMILES: N#Cc1cc(Br)c(O)c(Br)c1 [Bromoxynil, bromoxynil]
- pest or weed control at 80 g/ha ([1]; 240 h, 80 g a.i./ha, read-out: Herbicidal effect [%] on ELEIN 10 DAT): 0%
- pest or weed control at 80 g/ha ([10]; Avena fatua, 240 h, 10 DAT, 80 g a.i./ha, read-out: Herbicidal effect [%] on AVEFA 10 DAT): 0%
- Herbicidal effect [%] on PHBPU 10 DAT ([9]; 80 g a.i./ha): 50%
- Herbicidal effect [%] on BIDPI 10 DAT ([6]; 80 g a.i./ha): 50%
- pest or weed control at 80 g/ha ([7]; 80 g a.i./ha): 30%

SMILES: COc1cc(OC)nc(NC(=O)NS(=O)(=O)c2cc(NC=O)ccc2C(=O)N(C)C)n1 [Foramsulfuron, foramsulfuron]
- Herbicidal effect [%] on SORHA 21 DAT ([8]; 1 g a.i./ha): 20%
- pest or weed control at 1 g/ha ([2]; Bassia scoparia, post-emergence, 504 h, 1 g a.i./ha, read-out: Herbicidal effect [%] on KCHSC 21 DAT): 20%
- Herbicidal effect [%] on ECHCG 10 DAT [11]: 70%
- Herbicidal effect [%] on AVEFA 21 DAT ([10]; 21 DAT, 1 g a.i./ha): 70%
- pest or weed control at 1 g/ha ([10]; Avena fatua, 240 h, 10 DAT, 1 g a.i./ha, read-out: Herbicidal effect [%] on AVEFA 10 DAT): 60%
- Herbicidal effect [%] on BIDPI 10 DAT ([6]; 1 g a.i./ha): 20%
- Herbicidal effect [%] on BIDPI 21 DAT ([6]; 1 g a.i./ha): 30%
- pest or weed control at 1 g/ha ([7]; 1 g a.i./ha): 30%
